Our source for the activation values is PMC13083723 (Patterns, 2026).

Structures are written as SMILES.

This experiment has as its system Vero-E6 cells. The experiment in a line: cells. The experiment is classed as cell-based. To be noted: Chlorocebus sabaeus, Vero C1008, 24 h, read-out: PL_Result.

Consider `CNC(=O)c1cc2c(cn1)[nH]c1ccccc12` [SPE_K61951118], for which the activation at 10 µM is -1.18%.

As for `N#CCNC(=O)c1ccc(-c2ccnc(Nc3ccc(N4CCOCC4)cc3)n2)cc1` [SPE_K87737963], the activation at 10 µM was 7.32%.

`COc1cc2ncnc(Nc3ccc(Oc4ccccc4)cc3)c2cc1OC` [SPE_K50495309]: the activation at 10 µM was -8.17%.

Take `C[C@@H]1CN(CCCn2c3ccccc3c3ccccc32)C[C@H](C)N1` [SPE_K70490179]: the activation at 10 µM was determined as 109%.

Regarding `C[C@]12CC[C@H](O)C[C@H]1CC[C@@H]1[C@@H]2CC[C@]2(C)[C@@](O)(c3ccoc3)CC[C@]12O` [SPE_K11672787], the activation at 10 µM was -0.921%.

In the case of `O=C(O)C1=CCNCC1` [SPE_K66480997], the activation at 10 µM is -5.88%.

With `COc1ccc(CNC(=O)c2sc3nc(C)cc(C)c3c2N)cc1` [SPE_K87727457], the activation at 10 µM was -11.5%.

Consider `C[C@H](CCC(=O)NCCS(=O)(=O)O)[C@H]1CC[C@H]2[C@@H]3[C@@H](O)C[C@@H]4C[C@H](O)CC[C@]4(C)[C@H]3CC[C@]12C` [SPE_K45245728], for which the activation at 10 µM was -11.6%.

As to `O=C(Nc1cccnc1)N1CCC(Cc2cccc(Oc3ccc(C(F)(F)F)cn3)c2)CC1` [SPE_K68997413], the activation at 10 µM turned out to be 1.53%.

Regarding `CC(C)N(CCC(C(N)=O)(c1ccccc1)c1ccccn1)C(C)C` (stereo not drawn) [SPE_A29734509], the activation at 10 µM was determined as 1.87%.

`COc1ccc(C(=O)/C(Cc2cc(OC)c(OC)c(OC)c2)=C(\C(=O)O)c2ccc3c(c2)OCO3)cc1` [SPE_K13826399]: the activation at 10 µM was found to be 12.9%.

With `Cc1cc(/C=C/C#N)cc(C)c1Nc1ccnc(Nc2ccc(C#N)cc2)n1` [SPE_K06240250], the activation at 10 µM was -8.07%.

Take `O=C1NC(=S)NC(=O)C1C(=O)Nc1ccccc1` [SPE_K45152786]: the activation at 10 µM is -1.42%.

For the molecule `COc1cc2c(cc1NS(=O)(=O)c1ccc(Br)cc1C)n(C)c(=O)n2C` [SPE_K92658264], the activation at 10 µM is -2.45%.

Consider `Cc1nnc(C(=O)NC(C)(C)c2nc(C(=O)NCc3ccc(F)cc3)c(O)c(=O)n2C)o1` [SPE_K05658747], for which the activation at 10 µM is -12.8%.

As for `CCCCN(CCCC)C(=O)CN1C[C@H](c2ccc3c(c2)OCO3)[C@@H](C(=O)O)[C@@H]1c1ccc(OC)cc1` [SPE_K16295392], the activation at 10 µM was -6.93%.

With `N#Cc1ccc(Cn2cncc2CN2CCN(c3cccc(Cl)c3)C(=O)C2)cc1` [SPE_K10958118], the activation at 10 µM was -5.79%.

On to `COc1ccc(C2C(=O)c3ccccc3C2=O)cc1` [SPE_K47458712], for which the activation at 10 µM is -11.2%.

Turning to `Cc1ccc2nc(N)nc(O)c2c1Sc1ccncc1` [SPE_K36636143], the activation at 10 µM worked out at 2.73%.

Consider `Cc1coc2c1C(=O)C(=O)c1c-2ccc2c(C)cccc12` [SPE_K34073885], for which the activation at 10 µM came to 1.44%.

Turning to `O=[N+]([O-])c1cc(Cl)ccc1S(=O)(=O)N1CCN(Cc2ccccc2)CC1` [SPE_K45519571], the activation at 10 µM is 3.29%.

For the molecule `CCc1c(C(=O)C(N)=O)c2c(OCC(=O)O)cccc2n1Cc1ccccc1` [SPE_K09711437], the activation at 10 µM was -15.1%.

In the case of `O=C(COc1ccc(C(=O)c2ccccc2)cc1)NC1CCN(Cc2ccccc2)CC1` [SPE_K68810443], the activation at 10 µM is -3.96%.

Consider `COc1ccc(Oc2c(Cl)cnn(C3c4ccccc4-c4ccccc43)c2=O)cc1` [SPE_K27732927], for which the activation at 10 µM was -5.19%.

Turning to `Clc1ccc(C(Cn2ccnc2)OCc2ccc(Sc3ccccc3)cc2)c(Cl)c1` (stereo not drawn) [SPE_A33697453], the activation at 10 µM stood at 17.3%.

`COc1ccccc1C(=O)Nc1cccc(NC(=O)c2cccc(C)c2)c1` [SPE_K02160913]: the activation at 10 µM was -4.26%.

For `CC[C@@H]([C@H](C)O)n1ncn(-c2ccc(N3CCN(c4ccc(OC[C@@H]5CO[C@@](Cn6cncn6)(c6ccc(F)cc6F)C5)cc4)CC3)cc2)c1=O` [SPE_K06222852], the activation at 10 µM was -4.55%.

For the molecule `Cc1nc(-c2cn3c(n2)-c2ccc(-c4cnn(C(C)(C)C(N)=O)c4)cc2OCC3)n(C(C)C)n1` [SPE_K44844162], the activation at 10 µM was 4.98%.

Take `COc1cc2c(cc1OC)[C@@]13CCN4CC5=CCOC6CC(=O)N2C1[C@H]6[C@H]5C[C@H]43` (stereo partly drawn) [SPE_A41995253]: the activation at 10 µM is 1.19%.

In the case of `O=C(O)C1CN(CCCP(=O)(O)O)CCN1` (stereo not drawn) [SPE_A60832661], the activation at 10 µM is -0.285%.

On to `CC(C)(Sc1cc(C(C)(C)C)c(O)c(C(C)(C)C)c1)Sc1cc(C(C)(C)C)c(O)c(C(C)(C)C)c1` [SPE_K72029282], for which the activation at 10 µM was -0.8%.

`O=C(O)[C@H](Cc1c[nH]c2ccccc12)N1C(=O)c2ccccc2C1=O` [SPE_K89391146]: the activation at 10 µM is -6.19%.

For `c1cc(-c2cnn3cc(-c4ccc(N5CCNCC5)cc4)cnc23)c2cccnc2c1` [SPE_K59831625], the activation at 10 µM is 29.5%.

For `Cc1[nH]nc(C(F)(F)F)c1Cc1sc2c(c1C(=O)N1C[C@](C)(O)CO1)c(=O)n(C)c(=O)n2C(C)C` [SPE_K25210703], the activation at 10 µM was -5.25%.

For the molecule `Cc1c(C2CCN(CCc3ccccc3)CC2)noc1-c1ccc(Cl)cc1` [SPE_K13211965], the activation at 10 µM was found to be 49%.

For `Cc1cc2sc(NC(=O)Cc3ccccc3)nc2cc1Cl` [SPE_K47409078], the activation at 10 µM came out at 0.438%.

For the molecule `CC[C@@H](CO)NC(=O)[C@@H]1C=C2c3cccc4[nH]cc(c34)C[C@H]2N(C)C1` [SPE_K34685430], the activation at 10 µM was -5.04%.

As for `C=C1C(=O)O[C@@H]2[C@H]3O[C@]3(C)CC/C=C(\C)CC[C@@H]12` [SPE_K28120222], the activation at 10 µM was -7.03%.

Take `C=CCc1ccc(O)c(-c2ccc(O)c(CC=C)c2)c1` [SPE_K98493452]: the activation at 10 µM is -13.9%.

`COc1ccc2cc3[n+](cc2c1OC)CCc1cc2c(cc1-3)OCO2` [SPE_K14796088]: the activation at 10 µM is -2.9%.

With `O=C1C=CC[C@@H]2[C@H]3CCCN4CCC[C@@H](CN12)[C@@H]34` [SPE_K66845263], the activation at 10 µM is -5.47%.

For the molecule `CNC1CCCN(c2c(F)cc3c(=O)c(C(=O)O)cn(C4CC4)c3c2OC)C1` (stereo not drawn) [SPE_A47790386], the activation at 10 µM is 3.04%.

For the molecule `Nc1nc(Nc2ccc(S(N)(=O)=O)cc2)nn1C(=O)c1c(F)cccc1F` [SPE_K11636097], the activation at 10 µM was -9.77%.

Take `CCCCC/C=C\C/C=C\C/C=C\CCCCC(=O)O` [SPE_K18059238]: the activation at 10 µM came to 1.69%.

`C[C@@H](c1ccc2nccn2c1)n1nnc2ncc(-c3cnn(C)c3)nc21` [SPE_K98028353]: the activation at 10 µM was -4.44%.

For the molecule `O=C1Nc2cc(Cl)c(Cl)cc2N2CCNCC12` (stereo not drawn) [SPE_A62021152], the activation at 10 µM was -10.8%.

Regarding `C[C@@H](c1ncncc1F)[C@](O)(Cn1cncn1)c1ccc(F)cc1F` [SPE_K06557128], the activation at 10 µM is -4.59%.

Turning to `CCCCCCCCCCCCCCCCCCCCCCCCCCCCO` [SPE_K03083257], the activation at 10 µM is -15.2%.

On to `O=C(O)CCCCC(=O)O` [SPE_K10656395], for which the activation at 10 µM is 4.52%.

Consider `CC(C)COC(=O)c1ccc(N)cc1` [SPE_K96714749], for which the activation at 10 µM turned out to be 1.09%.

For the molecule `CC(C)(Oc1ccc(Cl)cc1)C(=O)O` [SPE_K19111024], the activation at 10 µM is -0.104%.

`CC(C)c1ccc(CC(=O)N2CCC[C@@H](c3cccc(OC(C)(C)C(=O)O)c3)C2)cc1` [SPE_K96843359]: the activation at 10 µM is -10.8%.

`CN(C)c1ccc(C(=C2C=CC(=[N+](C)C)C=C2)c2ccc(N(C)C)cc2)cc1` [SPE_K60025295]: the activation at 10 µM was 5.79%.

Turning to `COc1cc(N)c(Cl)cc1C(=O)OCCN1CCCCC1` [SPE_K69343602], the activation at 10 µM is -4.29%.

For the molecule `COc1[nH]c2ccc(F)cc2c1C(=O)OCC1CCN(CCNS(C)(=O)=O)CC1` [SPE_K62594868], the activation at 10 µM was -2.59%.

Turning to `O=C(/C=C/c1ccccc1)NCCO` [SPE_K76021681], the activation at 10 µM amounted to 2.18%.

As for `COc1ccc(F)c(F)c1C(=O)c1cnc(NC2CCN(S(C)(=O)=O)CC2)nc1N` [SPE_K52233191], the activation at 10 µM was -6.09%.

For `Cc1ccc(-n2sc(=O)n(Cc3ccc(F)cc3)c2=O)cc1` [SPE_K08893438], the activation at 10 µM was 8.86%.

In the case of `COc1ccc(-n2c(C)c([N+](=O)[O-])c3ccc(O)cc32)cc1` [SPE_K39166528], the activation at 10 µM is -10.4%.

In the case of `COc1ccccc1N1CCN(CCN(C(=O)C2CCCCC2)c2ccccn2)CC1` [SPE_K69812556], the activation at 10 µM is -15.3%.

Turning to `CC[N+](CC)(CC)CCOc1ccc(/C=C/c2ccccc2)cc1` [SPE_K03128577], the activation at 10 µM came out at 8.41%.

Turning to `O=C1N=C2NN=CC2C(=O)N1` (stereo not drawn) [SPE_K31841515], the activation at 10 µM came out at 2.22%.

`CN1CCN(c2ccc3nc(-c4ccc5nc(-c6ccc(O)cc6)[nH]c5c4)[nH]c3c2)CC1` [SPE_K17026858]: the activation at 10 µM was -8.8%.

In the case of `O=C(O)c1cc(-c2ccc(F)cc2F)ccc1O` [SPE_K22031190], the activation at 10 µM is -7.97%.

On to `Cc1cc(NCCO)nc(-c2ccc(Br)cc2)n1` [SPE_K07656463], for which the activation at 10 µM is -1.9%.

For `COc1ccc(CCN(C)CCCN2CCc3cc(OC)c(OC)cc3CC2=O)cc1OC` [SPE_K92446736], the activation at 10 µM is -9.23%.

On to `COc1ccc(/C=C/C(=O)O)cc1` [SPE_K26273521], for which the activation at 10 µM was -9.12%.

Turning to `N#CC(c1ccccc1)(c1ccccc1)c1ccccc1Cl` [SPE_K81341251], the activation at 10 µM came out at 4.81%.

For the molecule `Cc1ncc(CO)c(C=O)c1O` [SPE_K76204040], the activation at 10 µM is -1.79%.

For the molecule `Cc1cc(OCC(=O)O)cc(C)c1Cc1ccc(O)c(C(C)C)c1` [SPE_K85406984], the activation at 10 µM was -18.6%.

For the molecule `COc1ccc(C(=O)c2ccccc2O)c(O)c1` [SPE_K22193694], the activation at 10 µM was -2.64%.

For the molecule `CN1C2CCCC1CC(NC(=O)c1nn(C)c3ccccc13)C2` (stereo not drawn) [SPE_A10967948], the activation at 10 µM was found to be 3.5%.

Consider `C=CCC1(CC(C)C)C(=O)NC(=O)NC1=O` [SPE_K71350836], for which the activation at 10 µM is -15.8%.

For `CC1CCN(C(c2ccc(F)cc2)c2ccc(C(C)C(=O)O)cc2-c2ccc(C(F)(F)F)cc2)CC1` (stereo not drawn) [SPE_A66521565], the activation at 10 µM was -6.16%.

In the case of `O=S(=O)(Cc1ccccc1)Nc1ccc(-c2ccc3c(cnn3-c3ccc(F)cc3)c2)c(C(F)(F)F)c1` [SPE_K29328421], the activation at 10 µM is -4.77%.
